Results on 12 compounds are retold here after patent US6881553B2 (priority 1999, dated 2005).

Series [1] relates to L. pneumophila Philadelphia 1. The experiment in a line: microbe, parasite or virus in culture. In kind it is cell-based, Legionella pneumophila. Conditions: for inhibition of 14C-acetate incorporation: 0.5 mM.
For series [2], the system named is L. pneumophila F4b. Format: cell-based, Legionella pneumophila. The note with it: disks 2.5 mg or 1.0 mg, BCYE plates, four days.
Series [3] has as its system L. pneumophila Philadelphia 1. Format: cell-based, Legionella pneumophila. Conditions: disks 2.5 mg or 1.0 mg, BCYE plates, four days.
The subject of a further series is L. pneumophila lysates. Format: biochemical, Legionella pneumophila. Conditions: for inhibition of 14C-acetate incorporation, lysates compared with whole cells: 0.4 mM or 2.0 mM.
For series [4], the system named is L. pneumophila Philadelphia 1. The experiment in a line: microbe, parasite or virus in culture. In kind it is cell-based, Legionella pneumophila. The note with it: for MIC90: Legionella pneumophila, 48 h, read-out: MIC which inhibited 90% of L. pneumophila growth (MIC90).
For the next series, the system named is Pseudomonas aeruginosa. Format: cell-based.
For series [5], the system named is L. pneumophila F4b. The experiment in a line: microbe, parasite or virus in culture. Format: cell-based. Conditions: Legionella pneumophila, read-out: concentration giving 50% inhibition of 14C-acetate incorporation.
The subject of a further series is bacterial species. Format: cell-based.
For series [6], the system named is L. pneumophila in PMA-differentiated HL-60 cells. In kind it is cell-based, Legionella pneumophila.
Series [7] deals with L. pneumophila. Format: cell-based, Legionella pneumophila. The note with it: GFZ 30 μg/ml, three days on CYE agar.
Series [8] concerns L. pneumophila in human monocyte-derived macrophages. In kind it is cell-based, Legionella pneumophila.
In series [9] the test system is M. tuberculosis strains. The experiment in a line: M. tuberculosis 7H9 broth assay. In kind it is cell-based, Mycobacterium tuberculosis. The note with it: 21 days, turbidity.
The test system of series [10] is M. tuberculosis strains. The experiment in a line: M. tuberculosis susceptibility assay on Middlebrook agar. The note with it: 27 strains, OADC Middlebrook agar, three weeks 37° C. In kind it is cell-based, Mycobacterium tuberculosis.
The conditions of series [11]: mouse, in vivo; cited from earlier work.
For a further series, the system named is Candida albicans. The experiment in a line: Zone of inhibition assay on SAB medium.
Another series deals with J774 cells. The note with it: treatment of J774 cells with GFZ; cited from earlier work.
The nature of series [12]: Solubility observations in media. Format: physicochemical. The note with it: aqueous medium.
In the next series the test system is atypical mycobacteria. The experiment in a line: Zone of inhibition assay. The note with it: standard laboratory media. Format: cell-based.
The test system of the next series is Legionella sp. strains. Format: cell-based.
Another series concerns Nocardia sp. Format: cell-based.
Series [13] has as its system Listeria monocytogenes in mouse J774 macrophage-like cells. Conditions: GFZ in combination with norfloxacin; cited from earlier work.
For the next series, the system named is Saccharomyces cerevisiae. The experiment in a line: Zone of inhibition assay on SAB medium.
In another series the test system is L. pneumophila FabX. Format: biochemical, Legionella pneumophila. Conditions: dodecenoyl-CoA substrate, 100 μM NADH, pH 7.4.
The target in the next series is M. tuberculosis InhA (Mycobacterium tuberculosis, UniProt P9WGR1). The note with it: pH 7.4.
The subject of another series is L. pneumophila FabT. Format: biochemical, Legionella pneumophila. The note with it: dodecenoyl-CoA substrate, 100 μM NADH, pH 7.4.
The target of series [14] is M. tuberculosis InhA enoyl reductase (Mycobacterium tuberculosis, UniProt P9WGR1). The experiment in a line: biochemical.
The target of series [15] is L. pneumophila FabX enoyl reductase (His-tagged FabX). Format: biochemical. The note with it: competitive with regard to DCA (dodecenoyl-CoA) substrate; 100 μM NADH, 100 mM NaPO4 pH 7.4; value (+/- spread).
Series [16] concerns the target L. pneumophila FabT enoyl reductase (His-tagged FabT) (Legionella pneumophila, UniProt Q5ZUE4). The experiment in a line: biochemical.
The test system of series [17] is L. pneumophila. Conditions: cited from earlier work.
The test system of series [18] is L. pneumophila. Conditions: cited from earlier work. This is another data set of the same source.

The term Ki denotes a measure of affinity in units of concentration, obtained from inhibition or displacement. A low value points to tighter binding.

≈ marks a conversion by molar mass, not a printed value. Where “and” joins values, the source holds several entries; their conditions need not be identical. Identical values can stand only once. Entries after “also recorded” stand apart in the source; their conditions may differ. Like-named read-outs stand apart in the source and are kept apart here.

L. pneumophila FabT enoyl reductase (His-tagged FabT), sequence (Q5ZUE4 1-268): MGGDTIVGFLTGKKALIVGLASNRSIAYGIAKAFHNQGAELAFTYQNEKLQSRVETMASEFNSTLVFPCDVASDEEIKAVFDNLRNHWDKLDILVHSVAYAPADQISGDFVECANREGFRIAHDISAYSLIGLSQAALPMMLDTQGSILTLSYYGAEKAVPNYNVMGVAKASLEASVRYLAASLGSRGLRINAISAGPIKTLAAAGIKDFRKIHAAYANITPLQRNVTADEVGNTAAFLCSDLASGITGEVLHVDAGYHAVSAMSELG
M. tuberculosis InhA, sequence (P9WGR1 whole entry, looked up): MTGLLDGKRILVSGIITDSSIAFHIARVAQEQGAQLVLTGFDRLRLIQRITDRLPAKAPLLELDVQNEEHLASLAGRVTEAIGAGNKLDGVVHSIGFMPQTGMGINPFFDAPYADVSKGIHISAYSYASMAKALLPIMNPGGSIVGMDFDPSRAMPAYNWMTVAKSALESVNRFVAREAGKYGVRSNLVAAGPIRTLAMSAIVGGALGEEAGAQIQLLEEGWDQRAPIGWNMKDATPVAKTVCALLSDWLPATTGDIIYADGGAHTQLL
M. tuberculosis InhA enoyl reductase, sequence (P9WGR1 whole entry, looked up): as above

For `O=C(O)c1ccccc1O` [2-hydroxybenzoic acid], the “inhibition of 14C-acetate incorporation” value in [1] was “some efficacy”. The “antibacterial activity by zone of inhibition” value (in the series with L. pneumophila F4b [2]; in [3]) was “more sensitive to 2-hydroxybenzoic acid (salicylic acid) than GFZ” throughout.
In the case of `O=C(O)CCc1ccc(O)c(O)c1` [3,4-HPA, 3,4-dihydroxyphenyl propionic acid], the “antibacterial activity by zone of inhibition” value (in the series with L. pneumophila F4b [2]; in series [3]) was “equally inhibitory” each time.
For `O=C(O)CCc1ccc(O)cc1` [Analog 4-HPA, 4-hydroxyphenylpropionic acid], the “antibacterial activity by zone of inhibition” value (with L. pneumophila F4b [2]; in [3]) was “equally inhibitory” in each case.
For `C/C=C/C/C=C/CCC(=O)[C@H]1O[C@H]1C(N)=O` [Cerulenin, cerulenin], in [1] (100 μg/ml (0.45 mM)), the “inhibition of 14C-acetate incorporation relative to GFZ at 100 μg/ml” value was “slightly better inhibitor”. In addition, the “inhibition of 14C-acetate incorporation, lysates compared with whole cells” value with L. pneumophila lysates was “less effective inhibitor”.
`Cc1ccc(C)c(OCCCC(C)(C)C(=O)O)c1` [GFZ, gemfibrozil]: in series [4] (10-200 μg/ml, aliquots of MIC cultures plated on CYE), the “bacteriostatic or bacteriocidal effect” value is on record as “bacteriostatic”. Moreover, the MIC90 in series [4] was 10 µg/mL (≈ 39.9 µM). Besides, the growth inhibition entry in the series with Pseudomonas aeruginosa is listed as “did not inhibit the growth”. Moreover, the IC50 with L. pneumophila F4b [5] is 100 µg/mL and 400 µM; in [1] (Legionella pneumophila, 0.25 h, read-out: concentration giving fifty percent inhibition of 14C-acetate incorporation), 25 µg/mL (≈ 99.9 µM); in [1] (Legionella pneumophila, 1 h, read-out: concentration giving 50% inhibition of 14C-acetate incorporation), 10 µg/mL and 40 µM; in [1] (Legionella pneumophila, read-out: concentration giving 50% inhibition of 14C-acetate incorporation), 100 µM and 25 µg/mL. For the same compound, the “sensitivity of nonpathogenic bacterial strains” value in the series with bacterial species is on record as “four of the eight strains tested demonstrated sensitivity”. In addition, in the series with bacterial species, the “share of bacterial species tested that demonstrated susceptibility” value is listed as 33%. In addition, the inhibition at 400 µM in series [1] (Legionella pneumophila, read-out: inhibition of 14C-acetate incorporation into TCA precipitable material in whole cells) was above 90%. Also, the “lowest concentration that inhibited 14C-acetate incorporation” value in series [1] (within 15 minutes) amounted to 10 µg/mL. Moreover, the “L. pneumophila intracellular growth” value in series [6] (GFZ 0.4 mM (100 μg/ml)) is reported as “inhibition of L. pneumophila intracellular growth”. For the same compound, the “concentration required to inhibit intracellular growth within macrophages” value in series [6] (macrophages) turned out to be 100 µg/mL. In addition, the “time after infection at which inhibition of bacterial growth was seen” value in [6] (single-round growth assay with gentamicin, GFZ 0.4 mM (100 μg/ml)) is at most 8 h. In addition, in the series with L. pneumophila [7], the “change in amount of 3-HB-propyl ester” value is listed as “fifty-fold increase”. For the same compound, the “intracellular growth of L. pneumophila in human macrophages” value in series [8] (0.4 mM (100 μg/ml)) is “inhibited the intracellular growth”; in [8] (0.6 mM compared with 0.4 mM), “no further reduction in L. pneumophila colonies”. Moreover, in the series on M. tuberculosis strains [9], the “growth of M. tuberculosis strains in 7H9 broth” value is given as “inhibits the growth”. Further, the “concentration that completely inhibited growth of all M. tuberculosis strains” value with M. tuberculosis strains [10] was 100 to 200 µg/mL. Further, in series [11], the LD50 is 250 mg/20 gm mouse per day. The susceptibility entry in the series with Candida albicans (SAB medium buffered to pH 7) is on record as “susceptible”; in the series on atypical mycobacteria, “resistant”; with Saccharomyces cerevisiae (SAB medium buffered to pH 7), “susceptible”. The zone of inhibition result with Candida albicans (unbuffered medium) is on record as “No zone of inhibition”; with Nocardia sp., 40-60 mm; with Saccharomyces cerevisiae (unbuffered medium) it was “No zone of inhibition”. Further, in the series on J774 cells, the “increase of intracellular concentration of norfloxacin” value was “fourfold”. Further, the “solubility in relation to pH” value in series [12] is recorded as “insoluble at an acid pH; also recorded: decreases as pH decreases”. Besides, the “inhibition of 14C-acetate incorporation into TCA precipitable material in a lysate” value in the series on L. pneumophila lysates (0.4 mM) came out at 15%. In addition, the “inhibition of 14C-acetate incorporation, lysates compared with whole cells” value with L. pneumophila lysates is recorded as “not as effective an inhibitor in these lysates as it was in whole cells”. Also, the “inhibition of 14C-acetate incorporation in lysate, comparison between inhibitors” value in the series with L. pneumophila lysates (2 mM) is recorded as “not as potent as cerulenin in lysates”. In addition, the “viability of uninfected HL-60 cells” value in the series with HL-60 cells is “did not affect the viability”. The “protection of infected HL-60 cells from L. pneumophila cytolytic effects” value with HL-60 cells (100 μg/ml, infection multiplicity of 0.1 bacteria/cell, 5 days) is recorded as “protected infected HL-60 cells”. In the series with Legionella sp. strains, the “sensitivity of Legionella sp. strains (zone of inhibition)” value is reported as “All 39 Legionella sp. strains were sensitive”. Also, in [13], the “reduction of the norfloxacin concentration required to block intracellular growth” value is given as “fourfold”.
In the case of `Cc1ccc(C)c(OCCCC(C)(C)C(=O)SCCNC(=O)CCNC(=O)[C@H](O)C(C)(C)COP(=O)(O)OP(=O)(O)OC[C@H]2O[C@@H](n3cnc4c(N)ncnc43)[C@H](O)[C@@H]2OP(=O)(O)O)c1` [GFZ-CoA], the “mode of inhibition of enoyl reductase activity” value with L. pneumophila FabX, at M. tuberculosis InhA and with L. pneumophila FabT was “competitive inhibitor” in each case.
`Cc1ccc(C)c(OCCCC(C)(C)C(=O)SCCNC(=O)CCNC(=O)[C@H](O)C(C)(C)COP(=O)(O)OP(=O)(O)OC[C@H]2O[C@@H](n3cnc4c(N)ncnc43)[C@H](O)[C@@H]2OP(=O)(O)O)c1` [GFZ]: the values for the Ki in series [14], in [15] and in series [16] were 210 µM, 122 µM and 127 µM, respectively.
Take `Nc1ccc(C(=O)O)c(O)c1` [P-aminosalicyclic acid, para-aminosalicylate]: the “inhibition of 14C-acetate incorporation” value in [1] is on record as “some efficacy”.
Take `CC(C)(Oc1ccc(CCNC(=O)c2ccc(Cl)cc2)cc1)C(=O)O` [bezafibrate]: the MIC90 in [4] is 250 µg/mL (≈ 691 µM).
On to `CCOC(=O)C(C)(C)Oc1ccc(Cl)cc1` [clofibrate], for which, in series [4] (AYE broth, 48 hrs at 37° C.), the “MIC which inhibited 90% of L. pneumophila growth (MIC90)” value amounted to 100 µg/mL. Besides, the “inhibition of 14C-acetate incorporation” value in series [1] is “some efficacy”. Also, the “effectiveness at inhibiting intracellular growth relative to GFZ” value in series [8] is on record as “much less effective than GFZ”. Moreover, the “intracellular growth of L. pneumophila in human macrophages” value in series [8] (1 mM) is on record as “able to slow L. pneumophila growth”.
Regarding `CC[C@H]1OC(=O)[C@H](C)[C@@H](O[C@H]2C[C@@](C)(OC)[C@@H](O)[C@H](C)O2)[C@H](C)[C@@H](O[C@@H]2O[C@H](C)C[C@H](N(C)C)[C@H]2O)[C@](C)(O)C[C@@H](C)C(=O)[C@H](C)[C@@H](O)[C@]1(C)O` [erythromycin], in the series with L. pneumophila [17], the “concentration inhibiting extracellular growth” value is 0.2 µg/mL.
Consider `CO[C@H]1/C=C/O[C@@]2(C)Oc3c(C)c(O)c4c(O)c(c(/C=N/N5CCN(C)CC5)c(O)c4c3C2=O)NC(=O)/C(C)=C\C=C\[C@H](C)[C@H](O)[C@@H](C)[C@@H](O)[C@@H](C)[C@H](OC(C)=O)[C@@H]1C` [rifampin], for which, in the series with L. pneumophila [17], the “concentration inhibiting extracellular growth” value was 0.002 µg/mL. Also, the “concentration inhibiting intracellular growth” value with L. pneumophila [18] is 0.1 µg/mL.
